# Laboratory results published in patent US20100129434A1, “COMPOSITIONS AND METHODS FOR THE TREATMENT OF MUCORMYCOSIS AND OTHER FUNGAL DISEASES” (priority 2006, published 2010).
# Like-named read-outs stand apart in the source and are kept apart here.
# Test system: R. oryzae
# Assay: Deferasirox susceptibility testing (MIC/MFC), R. oryzae isolates
# Format: cell-based, Rhizopus oryzae
# Conditions: for MFC / MIC: Rhizopus arrhizus; for MFC: read-out: MFC; for MIC: read-out: MIC
# Protocol: Minimum inhibitory concentration (MIC) and minimum fungicidal concentration (MFC) were determined for deferasirox by the method of Espinel-Ingroff using R. oryzae spores starved for iron (Espinel-Ingroff, (2001), supra). Cidality was defined as a <4-fold difference between MIC and MFC.
# We next determined the deferasirox susceptibilities of multiple clinical isolates of Mucorales (Table 3). The MIC9OS of deferasirox against Mucor, non-oryzae Rhizopus spp., and R. oryzae were 3.12 to 6.25 μg/ml. MFCs were similar to MICs, and deferasirox was cidal for 28/29 (97%) of isolates. Of note, slight growth was seen within the first twelve hours even at extremely high concentrations of deferasirox. […] Furthermore, the MICs and MFCs of deferasirox against these isolates were well below clinically achievable peak (˜38 μg/ml) and trough serum levels (˜17 μg/ml) of the drug at steady state when administered at the FDA-approved starting dose (20 mg/kg/d).
# [1] = 24 h, R. oryzae pyr17 pyrG−/−, 24 h
# [2] = 24 h, R. orzae type II 10206, 24 h
smiles,measurement,setting,value
"O=C(O)c1ccc(-n2nc(-c3ccccc3O)nc2-c2ccccc2O)cc1 [Deferasirox, 4-[3,5-Bis(2-hydroxyphenyl)-1H-1,2,4-triazol-1-yl]-benzoic acid]",Fungicidal?,"R. oryzae 99-133, 24 h",Y (Cidal = MFC/MIC ≦ 4)
same,Fungicidal?,"R. oryzae 99-133, 48 h",Y (Cidal = MFC/MIC ≦ 4)
same,Fungicidal?,"R. oryzae 99-880, 24 h",Y (Cidal = MFC/MIC ≦ 4)
same,Fungicidal?,"R. oryzae 99-880, 48 h",Y (Cidal = MFC/MIC ≦ 4)
same,Fungicidal?,"R. oryzae 99-892, 24 h",Y (Cidal = MFC/MIC ≦ 4)
same,Fungicidal?,"R. oryzae 99-892, 48 h",Y (Cidal = MFC/MIC ≦ 4)
same,Fungicidal?,"R. oryzae 729-02, 24 h",Y (Cidal = MFC/MIC ≦ 4)
same,Fungicidal?,"R. oryzae 729-02, 48 h",Y (Cidal = MFC/MIC ≦ 4)
same,Fungicidal?,"R. oryzae HUMC 02, 24 h",Y (Cidal = MFC/MIC ≦ 4)
same,Fungicidal?,"R. oryzae HUMC 02, 48 h",Y (Cidal = MFC/MIC ≦ 4)
same,Fungicidal?,"R. oryzae MIC90/MFC90, 24 h",Y (Cidal = MFC/MIC ≦ 4)
same,MFC90,"R. oryzae MIC90/MFC90, 24 h",12.5 µg/mL
same,Fungicidal?,"R. oryzae MIC90/MFC90, 48 h",Y (Cidal = MFC/MIC ≦ 4)
same,MFC90,"R. oryzae MIC90/MFC90, 48 h",6.25 µg/mL
same,Fungicidal?,"R. oryzae pyr17 pyrG−/−, 24 h",Y (Cidal = MFC/MIC ≦ 4)
same,Fungicidal?,"R. oryzae pyr17 pyrG−/−, 48 h",Y (Cidal = MFC/MIC ≦ 4)
same,Fungicidal?,"R. oryzae type 1 NRRL13440, 24 h",N (Cidal = MFC/MIC ≦ 4)
same,Fungicidal?,"R. oryzae type 1 NRRL13440, 48 h",N (Cidal = MFC/MIC ≦ 4)
same,Fungicidal?,"R. oryzae type I NRRL 6059, 24 h",Y (Cidal = MFC/MIC ≦ 4)
same,Fungicidal?,"R. oryzae type I NRRL 6059, 48 h",Y (Cidal = MFC/MIC ≦ 4)
same,Fungicidal?,"R. oryzae type I NRRL 10206, 24 h",Y (Cidal = MFC/MIC ≦ 4)
same,Fungicidal?,"R. oryzae type I NRRL 10206, 48 h",Y (Cidal = MFC/MIC ≦ 4)
same,Fungicidal?,"R. oryzae type I NRRL11823, 24 h",Y (Cidal = MFC/MIC ≦ 4)
same,Fungicidal?,"R. oryzae type I NRRL11823, 48 h",Y (Cidal = MFC/MIC ≦ 4)
same,Fungicidal?,"R. oryzae type I NRRL13142, 24 h",Y (Cidal = MFC/MIC ≦ 4)
same,Fungicidal?,"R. oryzae type I NRRL13142, 48 h",Y (Cidal = MFC/MIC ≦ 4)
same,Fungicidal?,"R. oryzae type I NRRL13533, 24 h",Y (Cidal = MFC/MIC ≦ 4)
same,Fungicidal?,"R. oryzae type I NRRL13533, 48 h",Y (Cidal = MFC/MIC ≦ 4)
same,Fungicidal?,"R. oryzae type I NRRL 21251, 24 h",Y (Cidal = MFC/MIC ≦ 4)
same,Fungicidal?,"R. oryzae type I NRRL 21251, 48 h",Y (Cidal = MFC/MIC ≦ 4)
same,Fungicidal?,"R. oryzae type I NRRL21396, 24 h",Y (Cidal = MFC/MIC ≦ 4)
same,Fungicidal?,"R. oryzae type I NRRL21396, 48 h",Y (Cidal = MFC/MIC ≦ 4)
same,Fungicidal?,"R. oryzae type I NRRL21409, 24 h",Y (Cidal = MFC/MIC ≦ 4)
same,Fungicidal?,"R. oryzae type I NRRL21409, 48 h",Y (Cidal = MFC/MIC ≦ 4)
same,Fungicidal?,"R. oryzae type II NRRL 18148, 24 h",Y (Cidal = MFC/MIC ≦ 4)
same,Fungicidal?,"R. oryzae type II NRRL 18148, 48 h",Y (Cidal = MFC/MIC ≦ 4)
same,Fungicidal?,"R. oryzae type II NRRL 21446, 24 h",Y (Cidal = MFC/MIC ≦ 4)
same,Fungicidal?,"R. oryzae type II NRRL 21446, 48 h",Y (Cidal = MFC/MIC ≦ 4)
same,Fungicidal?,"R. oryzae type II NRRL 21447, 24 h",Y (Cidal = MFC/MIC ≦ 4)
same,Fungicidal?,"R. oryzae type II NRRL 21447, 48 h",Y (Cidal = MFC/MIC ≦ 4)
same,Fungicidal?,"R. oryzae type II NRRL 21477, 24 h",Y (Cidal = MFC/MIC ≦ 4)
same,Fungicidal?,"R. oryzae type II NRRL 21477, 48 h",Y (Cidal = MFC/MIC ≦ 4)
same,Fungicidal?,"R. oryzae type II NRRL 21628, 24 h",Y (Cidal = MFC/MIC ≦ 4)
same,Fungicidal?,"R. oryzae type II NRRL 21628, 48 h",Y (Cidal = MFC/MIC ≦ 4)
same,Fungicidal?,"R. oryzae type II NRRL 21789, 24 h",Y (Cidal = MFC/MIC ≦ 4)
same,Fungicidal?,"R. oryzae type II NRRL 21789, 48 h",Y (Cidal = MFC/MIC ≦ 4)
same,Fungicidal?,"R. orzae type II 10206, 24 h",Y (Cidal = MFC/MIC ≦ 4)
same,Fungicidal?,"R. orzae type II 10206, 48 h",Y (Cidal = MFC/MIC ≦ 4)
same,MFC,"24 h, R. oryzae 99-133, 24 h",6.25 µg/mL
same,MIC,"24 h, R. oryzae 99-133, 24 h",6.25 µg/mL
same,MFC,"24 h, R. oryzae 99-880, 24 h",3.12 µg/mL
same,MIC,"24 h, R. oryzae 99-880, 24 h",3.12 µg/mL
same,MFC,"24 h, R. oryzae 99-892, 24 h",1.56 µg/mL
same,MIC,"24 h, R. oryzae 99-892, 24 h",1.56 µg/mL
same,MFC,"24 h, R. oryzae 729-02, 24 h",12.5 µg/mL
same,MIC,"24 h, R. oryzae 729-02, 24 h",12.5 µg/mL
same,MFC,"24 h, R. oryzae HUMC 02, 24 h",12.5 µg/mL
same,MIC,"24 h, R. oryzae HUMC 02, 24 h",12.5 µg/mL
same,MFC,[1],0.78 µg/mL
same,MIC,[1],0.78 µg/mL
same,MFC,[2],3.12 µg/mL
same,MIC,[2],3.12 µg/mL
same,MFC,"48 h, R. oryzae 99-133, 48 h",6.25 µg/mL
same,MIC,"48 h, R. oryzae 99-133, 48 h",1.56 µg/mL
same,MFC,"48 h, R. oryzae 99-880, 48 h",3.12 µg/mL
same,MIC,"48 h, R. oryzae 99-880, 48 h",3.12 µg/mL
same,MFC,"48 h, R. oryzae 99-892, 48 h",1.56 µg/mL
same,MIC,"48 h, R. oryzae 99-892, 48 h",1.56 µg/mL
